Results from patent US5955500A (G. D. Searle & Co., priority 1997, dated 1999).
Several values for one entry are separate records, joined by “and”; a condition that tells them apart may be missing. Equal entries are not always repeated. Structures can show the parent of a compound that is named as a salt. Where two headings read alike, the source gives them in different places.

What was measured:
[1] = pH 5, individual replicates; listed as 50, hydrochloride
canine heart = details: for AH time / Heart rate / Mean arterial pressure: mean ± SE, listed as 50/50S
[2] = test system: supraventricular tachycardia; details: intravenous; cited from earlier work
[3] = 0.1 mg/kg i.v., 0 min, hydrochloride
[4] = 0.1 mg/kg i.v., 1 min, hydrochloride
[5] = 0.1 mg/kg i.v., 2 min, hydrochloride
[6] = 0.1 mg/kg i.v., 3 min, hydrochloride
[7] = 0.1 mg/kg i.v., 4 min, hydrochloride
[8] = 0.1 mg/kg i.v., 5 min, hydrochloride
[9] = 0.2 mg/kg i.v., 0 min, hydrochloride
[10] = 0.2 mg/kg i.v., 1 min, hydrochloride
[11] = 0.2 mg/kg i.v., 2 min, hydrochloride
[12] = 0.2 mg/kg i.v., 3 min, hydrochloride
[13] = 0.2 mg/kg i.v., 4 min, hydrochloride
[14] = 0.2 mg/kg i.v., 5 min, hydrochloride
[15] = 0.4 mg/kg i.v., 0 min, hydrochloride
[16] = 0.4 mg/kg i.v., 1 min, hydrochloride
[17] = 0.4 mg/kg i.v., 2 min, hydrochloride
[18] = 0.4 mg/kg i.v., 3 min, hydrochloride
[19] = 0.4 mg/kg i.v., 4 min, hydrochloride
[20] = 0.4 mg/kg i.v., 5 min, hydrochloride

With `COc1ccc(CCN(C)CCCC(C#N)(c2ccc(OC)c(OC)c2)C(C)C)cc1OC` (racemic) [racemic verapamil, benzeneacetonitrile, α-[3-[[2-(3,4-dimethoxyphenyl)ethyl]methylamino]propyl]-3,4-dimethoxy-α-(1-methylethyl) hydrochloride, reference compound] the Concentration in octanol [1] was 6020 ng/mL and 6360 ng/mL and 5830 ng/mL, the Concentration in water [1] was 5050 ng/mL and 4800 ng/mL and 4750 ng/mL and the AH time (canine heart; [3]) was 97 ± 16 ms. For the same compound, the Heart rate (canine heart; [3]) was 143 ± 11 beats per min, the Mean arterial pressure (canine heart; [3]) was 92 ± 4 mmHg and the AH time (canine heart; [4]) was 107 ± 12 ms. For the same compound, the Heart rate (canine heart; [4]) was 135 ± 6 beats per min, the Mean arterial pressure (canine heart; [4]) was 97 ± 4 mmHg and the AH time (canine heart; [5]) was 105 ± 9 ms. It also gave a Heart rate (canine heart; [5]) of 122 ± 7 beats per min, a Mean arterial pressure (canine heart; [5]) of 101 ± 5 mmHg and an AH time (canine heart; [6]) of 106 ± 8 ms. For the same compound, the Heart rate (canine heart; [6]) was 118 ± 6 beats per min, the Mean arterial pressure (canine heart; [6]) was 102 ± 5 mmHg and the AH time (canine heart; [7]) was 104 ± 7 ms. It also gave a Heart rate (canine heart; [7]) of 119 ± 7 beats per min, a Mean arterial pressure (canine heart; [7]) of 100 ± 4 mmHg and an AH time (canine heart; [8]) of 104 ± 6 ms. The Heart rate (canine heart; [8]) was 125 ± 8 beats per min, the Mean arterial pressure (canine heart; [8]) was 104 ± 4 mmHg and the AH time (canine heart; [9]) was 96 ± 8 ms. It also gave a Heart rate (canine heart; [9]) of 169 ± 4 beats per min, a Mean arterial pressure (canine heart; [9]) of 88 ± 5 mmHg and an AH time (canine heart; [10]) of 117 ± 11 ms. It also gave a Heart rate (canine heart; [10]) of 164 ± 8 beats per min, a Mean arterial pressure (canine heart; [10]) of 90 ± 3 mmHg and an AH time (canine heart; [11]) of 112 ± 7 ms. The Heart rate (canine heart; [11]) was 149 ± 10 beats per min, the Mean arterial pressure (canine heart; [11]) was 101 ± 4 mmHg and the AH time (canine heart; [12]) was 118 ± 9 ms. It also gave a Heart rate (canine heart; [12]) of 149 ± 10 beats per min, a Mean arterial pressure (canine heart; [12]) of 101 ± 6 mmHg and an AH time (canine heart; [13]) of 117 ± 8 ms. It also gave a Heart rate (canine heart; [13]) of 147 ± 12 beats per min, a Mean arterial pressure (canine heart; [13]) of 101 ± 4 mmHg and an AH time (canine heart; [14]) of 124 ± 8 ms. The Heart rate (canine heart; [14]) was 147 ± 13 beats per min, the Mean arterial pressure (canine heart; [14]) was 100 ± 5 mmHg and the “Occurrence of AV conduction block” value (canine heart; 0.2 mg/kg i.v., listed as 50R/50S-verapamil, hydrochloride) was 3 animals. The AH time (canine heart; [15]) was 101 ± 10 ms, the Heart rate (canine heart; [15]) was 180 ± 11 beats per min and the Mean arterial pressure (canine heart; [15]) was 86 ± 8 mmHg. The AH time (canine heart; [16]) was 112 ± 10 ms, the Heart rate (canine heart; [16]) was 171 ± 7 beats per min and the Mean arterial pressure (canine heart; [16]) was 87 ± 8 mmHg. The AH time (canine heart; [17]) was 116 ± 5 ms, the Heart rate (canine heart; [17]) was 162 ± 3 beats per min and the Mean arterial pressure (canine heart; [17]) was 92 ± 7 mmHg. The AH time (canine heart; [18]) was 117 ± 7 ms, the Heart rate (canine heart; [18]) was 163 ± 5 beats per min and the Mean arterial pressure (canine heart; [18]) was 97 ± 6 mmHg. The AH time (canine heart; [19]) was 119 ± 8 ms, the Heart rate (canine heart; [19]) was 162 ± 4 beats per min and the Mean arterial pressure (canine heart; [19]) was 95 ± 8 mmHg. It also gave an AH time (canine heart; [20]) of 113 ± 5 ms, a Heart rate (canine heart; [20]) of 161 ± 9 beats per min and a Mean arterial pressure (canine heart; [20]) of 98 ± 6 mmHg. The “Occurrence of second and third degree AV conduction block” value (canine heart; 0.4 mg/kg i.v., listed as 50R/50S-verapamil, hydrochloride) was 7 animals, the “Peak effect on HR, in words” value (canine heart; dog, in vivo) was “drastic increase in HR” and the “QTc interval compared with 100R-verapamil, in words” value (canine heart; dog, in vivo) was “significantly increased compared with 100R-verapamil”. For the same compound, the “Interaction between MAP and HR (multiple linear regression), in words” value (canine heart; increase in HR against drop in MAP) was “greatest rate of increase in HR as opposed to a drop in MAP”, the “Sinus node recovery time (SNRT), significance” value (canine heart; paced at 200 beats/min) was “significant decrease” and the “Rapid and reliable control of supraventricular tachycardia, in words” value [2] was “work well”.
